Measurements taken from patent US20200017495A1, “NOVEL HETEROCYCLIC COMPOUNDS AND THEIR USE IN PREVENTING OR TREATING BACTERIAL INFECTIONS” (priority 2017, published 2020).

Columns and labels:
[1] = tested on: Klebsiella pneumoniae (KPN) isolates; assay: MIC of compounds alone and combined with antibacterials, broth microdilution (CLSI); format: cell-based
Procedure, shortened: (§1)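 Broth microdilution in cation-adjusted Mueller-Hinton broth, inoculum 5.10^5 CFU/mL, 16-20 h at 35° C in ambient air, on genotyped isolates. Compound MIC, alone or with an antibacterial, taken visually as lowest concentration preventing growth; antibacterial MIC determined at each compound concentration.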

[2] = tested on: Escherichia coli (ECO) isolates; assay: as above; format: cell-based
Procedure, shortened: as §1

C=CC1=C(C(=O)O)N2C(=O)[C@@H](NC(=O)/C(=N\OCC(=O)O)c3csc(N)n3)[C@H]2SC1 [FIX, Cefixime]
MIC ([1]; strain KPN UFR215, genotype SHV-27, CTX-M-15): >128 µg/mL
MIC ([1]; strain KPN UFR216, genotype SHV-28, CTX-M-15): >128 µg/mL
MIC ([1]; strain KPN UFR217, genotype TEM-1, SHV-1, CTX-M-15): >128 µg/mL
MIC ([1]; strain KPN UFR219, genotype SHV-12, CTX-M-15): >128 µg/mL
MIC ([1]; strain KPN UFR220, genotype TEM-1, SHV-12, DHA-1): >128 µg/mL
MIC ([1]; strain KPN UFR221, genotype TEM-1, SHV-11, CTX-M-14, DHA-1): 64 µg/mL
MIC ([1]; strain KPN UFR222, genotype DHA-2): >128 µg/mL
MIC ([1]; strain KPN UFR227O, genotype TEM-x, SHV-x, CTX-M-x): >128 µg/mL
MIC ([1]; strain KPN UFR229O, genotype SHV-12, VIM-1, antibiotic alone): >128 µg/mL
MIC ATB in combination ([1]; strain KPN UFR229O, with AF2 @ 8 μg/mL): >128 µg/mL
MIC ATB in combination ([1]; strain KPN UFR229O, with AF3 @ 8 μg/mL): >128 µg/mL
MIC ATB in combination ([1]; strain KPN UFR229O, with CLA @ 4 μg/mL): >128 µg/mL
MIC ATB in combination ([2]; ECO 4133, AF2 @ 8 μg/mL): <0.25 µg/mL
MIC ATB in combination ([2]; ECO 4133, AF3 @ 8 μg/mL): <0.25 µg/mL
MIC ATB in combination ([2]; ECO 4133, CLA @ 4 μg/mL): 0.5 µg/mL
MIC ATB in combination ([2]; ECO 5302, AF2 @ 8 μg/mL): <0.25 µg/mL
MIC ATB in combination ([2]; ECO 5302, AF3 @ 8 μg/mL): <0.25 µg/mL
MIC ATB in combination ([2]; ECO 5302, CLA @ 4 μg/mL): 0.5 µg/mL
MIC ATB in combination ([2]; ECO 131119, AF2 @ 8 μg/mL): <0.25 µg/mL
MIC ATB in combination ([2]; ECO 131119, AF3 @ 8 μg/mL): <0.25 µg/mL
MIC ATB in combination ([2]; ECO 131119, CLA @ 4 μg/mL): <=0.25 μg/mL
MIC ATB in combination ([2]; ECO 180070, AF2 @ 8 μg/mL): <0.25 µg/mL
MIC ATB in combination ([2]; ECO 180070, AF3 @ 8 μg/mL): <0.25 µg/mL
MIC ATB in combination ([2]; ECO 180070, CLA @ 4 μg/mL): 2 µg/mL
MIC ATB in combination ([2]; ECO 190314, AF2 @ 8 μg/mL): <0.25 µg/mL
MIC ATB in combination ([2]; ECO 190314, AF3 @ 8 μg/mL): <0.25 µg/mL
MIC ATB in combination ([2]; ECO 190314, CLA @ 4 μg/mL): 2 µg/mL
MIC ATB in combination ([2]; ECO 190317, AF2 @ 8 μg/mL): <0.25 µg/mL
MIC ATB in combination ([2]; ECO 190317, AF3 @ 8 μg/mL): <0.25 µg/mL
MIC ATB in combination ([2]; ECO 190317, CLA @ 4 μg/mL): 0.5 µg/mL
MIC ATB in combination ([2]; ECO 190457, AF2 @ 8 μg/mL): <0.25 µg/mL
MIC ATB in combination ([2]; ECO 190457, AF3 @ 8 μg/mL): <0.25 µg/mL
MIC ATB in combination ([2]; ECO 190457, CLA @ 4 μg/mL): 0.5 µg/mL
MIC ATB in combination ([2]; ECO 190549, AF2 @ 8 μg/mL): <0.25 µg/mL
MIC ATB in combination ([2]; ECO 190549, AF3 @ 8 μg/mL): <0.25 µg/mL
MIC ATB in combination ([2]; ECO 190549, CLA @ 4 μg/mL): 0.5 µg/mL
MIC ATB in combination ([2]; ECO 200159, AF2 @ 8 μg/mL): <0.25 µg/mL
MIC ATB in combination ([2]; ECO 200159, AF3 @ 8 μg/mL): <0.25 µg/mL
MIC ATB in combination ([2]; ECO 200159, CLA @ 4 μg/mL): <=0.25 μg/mL
MIC ATB in combination ([2]; ECO 200259, AF2 @ 8 μg/mL): <0.25 µg/mL
MIC ATB in combination ([2]; ECO 200259, AF3 @ 8 μg/mL): <0.25 µg/mL
MIC ATB in combination ([2]; ECO 200259, CLA @ 4 μg/mL): <=0.25 μg/mL
MIC ATB in combination ([2]; ECO 200344, AF2 @ 8 μg/mL): <0.25 µg/mL
MIC ATB in combination ([2]; ECO 200344, AF3 @ 8 μg/mL): <=0.25 μg/mL
MIC ATB in combination ([2]; ECO 200344, CLA @ 4 μg/mL): 0.5 µg/mL
MIC ATB in combination ([2]; ECO 260096, AF2 @ 8 μg/mL): <=0.25 μg/mL
MIC ATB in combination ([2]; ECO 260096, AF3 @ 8 μg/mL): <=0.25 μg/mL
MIC ATB in combination ([2]; ECO 260096, CLA @ 4 μg/mL): 1 µg/mL
MIC ATB in combination ([2]; ECO 260304, AF2 @ 8 μg/mL): <0.25 µg/mL
MIC ATB in combination ([2]; ECO 260304, AF3 @ 8 μg/mL): <0.25 µg/mL
MIC ATB in combination ([2]; ECO 260304, CLA @ 4 μg/mL): 0.5 µg/mL
MIC ATB in combination ([2]; ECO 260508, AF2 @ 8 μg/mL): <0.25 µg/mL
MIC ATB in combination ([2]; ECO 260508, AF3 @ 8 μg/mL): <0.25 µg/mL
MIC ATB in combination ([2]; ECO 260508, CLA @ 4 μg/mL): 0.5 µg/mL
MIC ATB in combination ([2]; ECO RGN238, AF2 @ 8 μg/mL): <0.25 µg/mL
MIC ATB in combination ([2]; ECO RGN238, AF3 @ 8 μg/mL): <0.25 µg/mL
MIC ATB in combination ([2]; ECO RGN238, CLA @ 4 μg/mL): <=0.25 μg/mL
MIC ATB in combination ([2]; ECO UFR15, AF2 @ 8 μg/mL): <0.25 µg/mL
MIC ATB in combination ([2]; ECO UFR15, AF3 @ 8 μg/mL): <0.25 µg/mL
MIC ATB in combination ([2]; ECO UFR15, CLA @ 4 μg/mL): 1 µg/mL
MIC ATB in combination ([2]; ECO UFR16, AF2 @ 8 μg/mL): <0.25 µg/mL
